Publication PMC2766550 (Peptides, 2009)
Several values for one entry are separate records, joined by “and”; a condition that tells them apart may be missing. Identical values can stand only once. Like-named read-outs stand apart in the source and are kept apart here. Square brackets hold non-standard residues; d marks the D form. Peptide text beside a SMILES is read from it. dPhe(F5) = N[C@H](Cc1c(F)c(F)c(F)c(F)c1F)C(=O)O

What was measured:
[1] = target: T1, hGRP-receptor (Homo sapiens, UniProt P30550); experiment: Whole cell radioligand binding, hGRP-receptor transfected Balb 3T3 cells; settings: b34 values for receptors expressed in Balb 3T3 cells
[2] = target: T1, hGRP-receptor; experiment: Whole cell radioligand binding, HuTu-80 cells
[3] = target: T2, hNMB-receptor (Homo sapiens, UniProt P28336); experiment: Whole cell radioligand binding, hNMB-receptor transfected Balb 3T3 cells; settings: for IC50: IC50 hNMB-R Balb-3T3, hNMB-receptor transfected Balb 3T3 cells, 125I-[D-Tyr0]NMB, 1 h, 22°C, mean ± S.E.
[4] = target: T2, hNMB-receptor; experiment: Whole cell radioligand binding, hNMB-receptor transfected NCI-H1299 cells
[5] = target: T3, hBRS-3 receptor (Homo sapiens, UniProt P32247); experiment: Whole cell radioligand binding, hBRS-3 transfected Balb 3T3 cells
T3 sequence (P32247 1-399): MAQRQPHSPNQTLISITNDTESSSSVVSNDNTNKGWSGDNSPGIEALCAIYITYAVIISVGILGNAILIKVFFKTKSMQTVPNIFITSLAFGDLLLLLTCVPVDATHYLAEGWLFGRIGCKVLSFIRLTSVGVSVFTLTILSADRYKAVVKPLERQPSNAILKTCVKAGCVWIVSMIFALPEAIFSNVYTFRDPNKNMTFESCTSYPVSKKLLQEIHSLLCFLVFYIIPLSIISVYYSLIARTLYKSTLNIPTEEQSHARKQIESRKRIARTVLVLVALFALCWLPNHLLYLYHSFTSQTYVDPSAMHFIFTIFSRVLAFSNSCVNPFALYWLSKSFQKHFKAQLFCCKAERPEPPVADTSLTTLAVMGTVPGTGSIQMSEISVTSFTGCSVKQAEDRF

[6] = target: T1, hGRP-receptor; experiment: [3H]inositol phosphate generation, hGRP-receptor transfected Balb 3T3 cells; assay type: cell-based; settings: for [3H]IP hGRPR-R-Balb-3T3 Ag/Antag: agonist/antagonist classification, up to 10 μM
[7] = target: T1, hGRP-receptor; experiment: [3H]inositol phosphate generation, HuTu-80 cells; assay type: cell-based; settings: for [3H]IP HuTu-80 (hGRP-R) Ag/Antag: agonist/antagonist classification, up to 10 μM
[8] = target: T2, hNMB-receptor; experiment: cell-based; settings: for [3H]IP NCI-H1299 (hNMB-R) Ag/Antag: agonist/antagonist classification, up to 10 μM
[9] = target: T2, hNMB-receptor; assay type: cell-based; settings: for [3H]IP hNMB-R-Balb-3T3 Ag/Antag: agonist/antagonist classification, up to 10 μM; for agonist activity at hNMB-receptor: concentrations up to 10 μM, hNMB-receptor transfected Balb 3T3 or NCI-H1299 cells
[10] = tested on: hGRP-receptors; settings: cited from earlier work
[11] = target: T2, hNMB-receptor; settings: cited from earlier work

T2 sequence (P28336 whole entry): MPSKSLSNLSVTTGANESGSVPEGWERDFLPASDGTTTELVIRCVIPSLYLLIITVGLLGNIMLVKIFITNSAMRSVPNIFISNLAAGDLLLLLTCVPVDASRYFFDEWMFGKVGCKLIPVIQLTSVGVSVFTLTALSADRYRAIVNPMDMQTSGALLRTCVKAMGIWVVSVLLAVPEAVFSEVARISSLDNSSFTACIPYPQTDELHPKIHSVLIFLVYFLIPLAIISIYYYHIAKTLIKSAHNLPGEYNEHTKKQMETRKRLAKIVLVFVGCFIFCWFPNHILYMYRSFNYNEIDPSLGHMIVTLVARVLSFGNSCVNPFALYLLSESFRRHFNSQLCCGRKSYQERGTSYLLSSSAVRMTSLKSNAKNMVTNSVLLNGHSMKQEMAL
T1 sequence (P30550 whole entry): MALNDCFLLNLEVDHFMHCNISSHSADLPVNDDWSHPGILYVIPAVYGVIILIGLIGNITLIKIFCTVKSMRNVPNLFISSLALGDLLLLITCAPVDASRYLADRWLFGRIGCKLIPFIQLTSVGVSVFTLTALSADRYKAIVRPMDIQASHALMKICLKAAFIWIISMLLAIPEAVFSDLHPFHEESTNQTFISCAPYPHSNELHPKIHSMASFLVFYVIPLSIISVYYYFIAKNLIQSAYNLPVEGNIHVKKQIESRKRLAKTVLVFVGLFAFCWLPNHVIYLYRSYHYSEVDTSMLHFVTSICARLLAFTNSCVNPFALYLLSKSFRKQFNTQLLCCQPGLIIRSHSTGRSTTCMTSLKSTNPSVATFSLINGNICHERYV

| Compound | selectivity for hGRP-receptor over hNMB-receptor (binding affinities) [1] | IC50 [2] | IC50 [3] | IC50 [4] | IC50 [5] | IC50 [6] | IC50 [7] | IC50 [8] | [3H]IP hGRPR-R-Balb-3T3 Ag/Antag [6] | [3H]IP HuTu-80 (hGRP-R) Ag/Antag [7] | [3H]IP hNMB-R-Balb-3T3 Ag/Antag [9] | agonist activity at hNMB-receptor [9] | [3H]IP NCI-H1299 (hNMB-R) Ag/Antag [8] | further results |
| --- | --- | --- | --- | --- | --- | --- | --- | --- | --- | --- | --- | --- | --- | --- |
| COC(=O)[C@H](CC(C)C)NC(=O)[C@H](Cc1c[nH]cn1)NC(=O)CNC(=O)[C@@H](NC(=O)[C@H](C)NC(=O)[C@H](Cc1c[nH]c2ccccc12)NC(=O)[C@H](CCC(N)=O)NC(=O)[C@H](N)Cc1ccccc1)C(C)C [Peptide 17, [D-Phe^6]Bn-(6-13)Methyl ester (ME)] | > 10,000 fold | 3.98 ± 0.8 nM | > 10000 nM | > 10000 nM | 5290 ± 1990 nM | 15.5 ± 1 nM | 10.9 ± 1.5 nM | > 10000 nM | – | – | – | – | – | – |
| COC(=O)[C@H](CC(C)C)NC(=O)[C@H](Cc1c[nH]cn1)NC(=O)[C@@H](C)NC(=O)[C@@H](NC(=O)[C@H](C)NC(=O)[C@H](Cc1c[nH]c2ccccc12)NC(=O)[C@H](CCC(N)=O)NC(=O)[C@H](N)Cc1c(F)c(F)c(F)c(F)c1F)C(C)C [Peptide 18, [D-F-5, Phe^6, D-Ala^11]Bn(6-13)Metyl ester (ME)] (H-[dPhe(F5)]QWAV[dA]HL-OMe) | > 11,000 fold and > 10,000 fold | 0.12 ± 0.01 nM | > 10000 nM | > 10000 nM | > 10000 nM | 3.6 ± 0.2 nM | 4.2 ± 0.9 nM | – | – | – | – | – | – | – |
| CCOC(=O)[C@H](CC(C)C)NC(=O)[C@H](Cc1c[nH]cn1)NC(=O)CNC(=O)[C@@H](NC(=O)[C@H](C)NC(=O)[C@H](Cc1c[nH]c2ccccc12)NC(=O)[C@H](CCC(N)=O)NC(=O)[C@H](N)Cc1ccccc1)C(C)C [Peptide 20, [D-Phe^6]Bn-(6-13)Ethyl ester] | > 10,000 fold | 0.14 ± 0.03 nM | > 10000 nM | > 10000 nM | 5300 ± 1400 nM | 2 ± 0.3 nM | 1.4 ± 0.8 nM | – | – | – | – | – | – | – |
| COc1ccc(C2(CNC(=O)C(C)(Cc3c[nH]c4ccccc34)NC(=O)Nc3ccc([N+](=O)[O-])cc3)CCCCC2)nc1 (centres unmarked) [Peptide 33, 3-(1H-Indol-3-yl)-N-[1-(5-methoxy-pyridin-2-yl)-cyclohexylmethyl]-2-methyl-2-[3-(4-nitro-phenyl)-ureido]-propionamide, reference compound] | – | 170 ± 11 nM | – | – | > 10000 nM | – | 275 ± 13 nM | – | Antag | Antag | Antag | did not have agonist activity | Antag | affinity for hGRP-receptors in a second study [10]: 20 to 30 nM; Ki ([10]; read-out: Ki for hGRP-receptors in a previous study): 1 nM |
| CC(Cc1c[nH]c2ccccc12)(NC(=O)Nc1ccc([N+](=O)[O-])cc1)C(=O)NCC1(c2ccccn2)CCCCC1 (centres unmarked) [Peptide 34, 3-(1H-Indol-3-yl)-2-methyl-2-[3(4-nitro-phenyl)-ureido]-N-(1-pyridin-2-yl-cyclohexylmethyl)-propionamide, reference compound] | – | 1740 ± 105 nM | 0.51 ± 0.02 nM | 0.25 ± 0.02 nM | > 10000 nM | > 3000 nM | 1780 ± 57 nM | 24.5 ± 1.2 nM | No act | Antag | Antag | did not have agonist activity | Antag | selectivity for hNMB-receptor over hGRP-receptor (binding affinities) ([3]; listed as PD168368): 7,000 fold; hGRPR Ag/Antag ([7]; Table 5 species comparison, human values of this study (HuTu-80)): Antag; selectivity for hNMB-receptor over hGRP-receptor based on potency for inhibiting agonist-stimulated [3H]IP [9]: 33 to 100 fold; hNMBR Ag/Antag ([8]; Table 5 species comparison, human values of this study (NCI-H1299)): Antag; hNMB- or rNMB-receptor selectivity in other studies [11]: 40 fold; IC50 ([11]; read-out: IC50 for hNMB-receptors, other studies on human cells): 15 nM |
